Measurements taken from patent publication US20030065066A1, “Triazine UV absorbers comprising amino resins” (priority 1998, published 2003).

Assay: Solubility in xylenes
Assay type: physicochemical
Text: A major advantage of alkoxymethylated melamine triazine UV absorbers of the present invention is not only their improved solubility, but also their improved compatibility with coatings resins compared to the corresponding triazine precursors. For example 2,4-bis(2,4-dimethylphenyl)-6-[2-hydroxy-4-(2-hydroxyethoxy)phenyl]-1,3-5-triazine is only soluble in xylenes to the extent of about 0.5%. […] Therefore Compound A is much easier to dissolve in high solids coating resin formulations than 2,4-bis(2,4-dimethylphenyl)-6-[2-hydroxy-4-(2-hydroxyethoxy)phenyl]-1,3-5-triazine, and overcomes the problem of cratering and poor weatherability of the final coatings due to undissolved UV absorber particles.

xylenes solubility: about 0.5%
Substance: 2,4-bis(2,4-dimethylphenyl)-6-[2-hydroxy-4-(2-hydroxyethoxy)phenyl]-1,3-5-triazine [Compound a]
